Laboratory results taken from PMC6045410 (ACS Omega, 2017).

Molecular target: FabG4 (β-ketoacyl CoA reductase, EC 1.1.1.100) (Mycobacterium tuberculosis, UniProt I6Y778)

COc1ccc(C(c2ccc(OCCN(C(C)C)C(C)C)cc2)c2cccs2)cc1 (racemic) [S-S006-830, diisopropyl-(2-{4-[(R,S)-(4-methoxy-phenyl)-thiophen-2-yl-methyl]-phenoxy}-ethyl)-amine (printed for the racemate S006-830)]
affinity pull-down on compound-linked agarose beads, 2-DE, LC-MS-MS: The pull-down of FabG4 by drug-affinity beads along with its overexpression by S-S006-830-resistant Mtb
